Reference: patent publication US20230233617A1, “METHODS FOR DIFFERENTIATING STEM CELLS INTO DOPAMINERGIC PROGENITOR CELLS” (JZ CELL TECHNOLOGIES AB, priority 2020, published 2023)

Tests used:
[1] = system: hPSC-derived ventral midbrain dopaminergic progenitors; assay: Specification of caudal midbrain identity (EN1 immunocytochemistry); format: cell-based, human; details: RA^2D+SAG
Experimental: (a) (a) Immunocytochemical analysis of ventral MB progenitor identities at 14 DDC. […] Nuclei of cells visualized with DAPI staining. (b) Immunocytochemistry of dopaminergic neuron marker TH and caudal midbrain marker EN1 expression in 40 DDC cultures differentiated in indicated conditions.
Cells were fixed for 12 min at room temperature (RT) in 4% paraformaldehyde in PBS, rinsed 3 times in PBST (PBS with 0.1% Triton-X100), and blocked for 1 hour at RT with blocking solution (3% FCS/0.1% Triton-X100 in PBS). Cells were then incubated with primary antibodies overnight at 4° C., followed by incubation with fluorophore-conjugated secondary antibodies for 1 hour at RT. Both primary and fluorophore-conjugated secondary antibodies were diluted in blocking solution. Primary antibodies used are listed in Supplementary Table 1. Appropriate Alexa (488, 555, 647)-conjugated secondary antibodies (Molecular Probes) were used.
Mechanisms underlying specification of midbrain dopamine neuron subtypes remains poorly resolved, but is likely to involve sub-patterning of ventral midbrain dopaminergic progenitors along the mediolateral and rostro-caudal axes of the midbrain (Brignani, S, and Pasterkamp, R. J., Front. Neuroanat. 11, 1-18 (2017)). WNT1 signaling emanating from the isthmic organizer at the midbrain-hindbrain boundary establish polarity of midbrain progenitors along the rostro-caudal axis by inducing a caudal^HIGH-to-rostral^LOW expression gradient of the homeodomain proteins EN1 and EN2 (Wurst, W. and Bally-Cuif, L. Nat. Rev. Neuroscience 2, 99-108 (2001)).

[2] = system: hPSC-derived vMB progenitors; assay: Neurogenesis and mDA neuron yield in differentiating hPSC cultures (HuCD, TuJ1, TH, GABA immunocytochemistry, electrophysiology); format: cell-based, human
From the text: A unique feature of mDA neurons is that they originate from initially non-neuronal floor plate (FP) cells at the ventral midline of the MB, and progenitors must acquire neuronal potential prior to differentiation into neurons^30,44. Few markers distinguish between these states, but downregulation of SHH and upregulation pro-neural bHLH proteins over time correlate with this transition^44. […] In RA^2D+SAG cultures at 21 DDC, ˜30% of DAPI^+ cells accounted for HuCD^+ neurons (FIG. 4d) and many of these had initiated expression of TH (FIG. 4c). When we instead used CHIR99021+SAG to specify LMX1A^+/NKX2.1^− vMB progenitors (FIG. 3b), cells initiated neurogenesis at around 17 DDC (FIG. 4c, d) which is consistent with previous studies^9,13. At 21 DDC, HuCD^+ neurons constituted ˜10% of total cells and few neurons expressed TH (FIG. 4c, d).
TH^+ neurons acquired a progressively more advanced neuronal morphology with a progressive outgrowth of TH^+ axonal processes in RA^2D+SAG cultures between 30-45 DDC (FIG. 4e, g, h; FIG. 8f (Supplementary FIG. 2f)). TH^+ neurons expressed mDA neuron markers LMX1A, LMX1B, FOXA2, NURR1, and OTX2 at 30-35 DDC (FIG. 4e). […] TH^+ neurons also expressed the mature neuronal marker SYNAPTOPHYSIN and the monoaminergic marker VMAT2 (FIG. 40. A subset of cells expressed GIRK2 or CALBINDIN indicating the presence of both A9- and A10-like subtypes of mDA neurons^45 (FIG. 4f). At 35 DDC, ˜80% of neurons expressed TH^+ which corresponded to ˜65% of total DAPI^+ cells (FIG. 4i, j). ˜10% of neurons expressed GABA (FIG. 4i, j), and some of these co-expressed TH (FIG. 10c (Supplementary FIG. 4c)). Only rare neurons expressing 5-HT or the MN marker PERIPHERIN were detected (FIG. 4i, j). High performance liquid chromatography (HPLC) analyses at 42 DDC established that neurons produced and released dopamine (FIG. 4k, I) but not serotonin (5-HT) or noradrenaline (NA) (FIG. 4k). […] Very few cells expressed Ki67 or phospho-histone H3 at 35-40 DDC indicating low mitotic activity after long-term culturing of cells (FIG. 4i). Functional maturation of mDA neurons in vitro can be monitored by determining the time when hPSC-derived mDA neurons acquire spontaneous action potentials, evoked action potentials and voltage-dependent Na^+ and K^+ currents, and these traits were previously reported to be attained after ˜60 days of culture of FACS-enriched mDA neurons (25+36 days: before/after sorting) using current state-of-the-art protocols^7. […] Neurons showing both spontaneous (FIG. 4m) and evoked action potentials (FIG. 4n) could be recorded at 40 DDC.
80-90% confluent PSCs cultures were rinsed twice with PBS, treated with EDTA (0.5 mM in PBS) for 5-7 min, and resuspended into single cell suspension in PBS. Cells were spin down at 400 g and resuspended in N2B27 medium (DMEM/F12: Neurobasal (1:1), 0.5×N2 and 0.5×B27 (plus vitamin A) supplements, 1×nonessential amino acids, 1% GlutaMAX, 55 μM β-mercaptoethanol-all from Thermo Fisher Scientific) containing 5 μM SB431542 (Miltenyi Biotech) and 2.5 μM DMH1 (Santa Cruz Biotech) (dual SMAD inhibition), and 10 μM ROCK inhibitor (for the first 48 hours after seeding). Cells were seeded on VTN (2 μg/cm^2) and Fibronectin (FN) (2 μg/cm^2) (Sigma) coated surface at a density of 60,000-80,000 cells/cm^2 for RA- and RA-analogues based experiments, and 20,000 cells/cm^2 for CHIR99021 experiments. SAG1.3 (Santa Cruz Biotechnology), CHIR99021 (Miltenyi Biotech), all-trans RA, 9-cis RA, 13-cis RA, Tazarotenic acid, R115866 (all Sigma), EC23 (Amsbio) were used at concentrations and time points described in the result section. For mDA neuron differentiation (see schematic drawing FIG. 4) neural progenitors were mechanically dissociated at 9 DDC with Stem Cell Passaging Tool (Thermo Fisher Scientific) and seeded at 1:3 ratio in N2B27 medium containing 10 μM ROCK inhibitor (for first 48 hours after dissociation) on VTN and FN coated surfaces. […]

`CC1=C(/C=C/C(C)=C/C=C/C(C)=C/C(=O)O)C(C)(C)CCC1` [RA, all-trans retinoic acid] was tested, and the “identity of ventral midbrain progenitors (EN1)” value ([1]; 14DDC) was “LMX1A^+/OTX2^+/EN1^− identity”, the “EN1 expression in TH+ dopamine neurons” value ([1]; 40DDC) was “a small proportion of TH^+ dopamine neurons expressed EN1” and the “share of cell population that are ventral midbrain dopaminergic progenitor cells (FOXA2, LMX1A, LMX1B, OTX2)” value ([2]; 14 DDC, immunocytochemistry) was “about 80%”. For the same compound, the “HuCD+ neurons as share of total DAPI+ cells” value ([2]; 21 DDC, with SAG) was ~30%, the “TH+ cells of total DAPI+ cells” value ([2]; RA^2D+SAG, 35 DDC) was ~65% and the “neurons expressing GABA” value ([2]; RA^2D+SAG, 35 DDC) was ~10%. For the same compound, the “neurons expressing TH” value ([2]; RA^2D+SAG, 35 DDC, of neurons) was ~80%, the “culture time to mDA neurons exhibiting mature functional features” value ([2]; RA^2D+SAG, spontaneous and evoked action potentials) was 40 days and the “time of initiation of neurogenesis (first neurons)” value ([2]; with SAG) was 12 DDC.
